Reference: patent publication US7507736B2, “Indol-2-yl-piperazin-1-yl-methanone derivatives” (Hoffmann-La Roche Inc., priority 2007, dated 2009)

Molecular target: T1, human H3R (Homo sapiens, UniProt Q9Y5N1)
T1 construct: expressed in transfected cells; host or cells: CHO cells
Experiment: Binding assay with 3H-(R)α-methylhistamine (competition binding, H3R-CHO membranes)
Conditions: competition vs 3H(R)α-methylhistamine (1 nM), membranes of the human H3R-CHO cell line; Ki calculated from IC50 by Cheng-Prusoff
Protocol: Binding Assay with ^3H—(R)α-methylhistamine
Saturation binding experiments were performed using HR3-CHO membranes prepared as described in Takahashi, K, Tokita, S., Kotani, H. (2003) J. Pharmacol. Exp. Therapeutics 307, 213-218.
An appropriate amount of membrane (60 to 80 μg protein/well) was incubated with increasing concentrations of ^3H(R)α-Methylhistamine di-hydrochloride (0.10 to 10 nM). Non specific binding was determined using a 200 fold excess of cold (R)α-Methylhistamine dihydrobromide (500 nM final concentration). The incubation was carried out at room temperature (in deep-well plates shaking for three hours). The final volume in each well was 250 μl. The incubation was followed by rapid filtration on GF/B filters (pre-soaked with 100 μl of 0.5% PEI in Tris 50 mM shaking at 200 rpm for two hours). The filtration was made using a cell-harvester and the filter plates were then washed five times with ice cold washing buffer containing 0.5 M NaCl. After harvesting, the plates were dried at 55° C. for 60 min, then we added scintillation fluid (Microscint 40, 40 microl in each well) and the amount of radioactivity on the filter was determined in Packard top-counter after shaking the plates for two hours at 200 rpm at room temperature. • Binding Buffer: 50 mM Tris-HCl pH 7.4 and 5 mM MgCl2×6H2O pH 7.4. Washing Buffer: 50 mM Tris-HCl pH 7.4 and 5 mM MgCl2×6H2O and 0.5 M NaCl pH 7.4.
Indirect measurement of affinity of H3R inverse agonists: twelve increasing concentrations (ranging from 10 μM to 0.3 nM) of the selected compounds were always tested in competition binding experiments using membrane of the human H3R—CHO cell line. An appropriate amount of protein, e.g. approximately 500 cpm binding of RAMH at Kd, were incubated for 1 hour at room temperature in 250 μl final volume in 96-well plates in presence of ^3H(R)α-methylhistamine (1 nM final concentration=Kd). Non-specific binding was determined using a 200 fold excess of cold (R)α-methylhistamine dihydrobromide.
All compounds were tested at a single concentration in duplicate. […] The concentration at which 50% inhibition of the radioligand ^3H(R)α-methylhistamine is obtained (the IC50) is determined from the linear regression of a plot of the logarithm of the concentration versus percent inhibition measured for the different concentrations. Ki's were calculated from IC50 based on Cheng-Prusoff equation (Cheng, Y. Prusoff, W H (1973) Biochem Pharmacol 22, 3099-3108): Ki=IC50/[1+D/Kd] wherein D is the concentration of the radioligand and Kd is the binding constant for the radioligand binding to the receptor under the conditions used in the competition experiment.

T1 sequence (Q9Y5N1 whole entry): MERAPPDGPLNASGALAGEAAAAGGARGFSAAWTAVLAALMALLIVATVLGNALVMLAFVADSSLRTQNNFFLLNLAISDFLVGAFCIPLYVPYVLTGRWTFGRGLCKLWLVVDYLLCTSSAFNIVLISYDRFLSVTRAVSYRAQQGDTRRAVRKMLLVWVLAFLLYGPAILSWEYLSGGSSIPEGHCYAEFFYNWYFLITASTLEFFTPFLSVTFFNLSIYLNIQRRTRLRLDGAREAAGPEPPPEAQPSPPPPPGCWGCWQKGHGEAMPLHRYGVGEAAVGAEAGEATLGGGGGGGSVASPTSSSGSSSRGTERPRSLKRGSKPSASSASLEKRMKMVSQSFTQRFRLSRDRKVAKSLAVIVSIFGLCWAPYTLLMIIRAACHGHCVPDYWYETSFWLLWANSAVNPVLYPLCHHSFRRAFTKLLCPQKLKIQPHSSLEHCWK

Row | Compound | Ki [nM]
1 | CC(C)N1CCC(Oc2cc3cc(C(=O)N4CCN(S(=O)(=O)N(C)C)CC4)[nH]c3cc2Br)CC1 [Example 3, 4-[6-Bromo-5-(1-isopropyl-piperidin-4-yloxy)-1H-indole-2-carbonyl]-piperazine-1-sulfonic acid dimethylamide] | 4.3
2 | Cc1ccc(S(=O)(=O)N2CCN(C(=O)c3cc4cc(O[C@H]5C[C@H]6CC[C@@H](C5)N6C(C)C)ccc4n3C(C)C)CC2)cc1 [Example 44, [1-Isopropyl-5-((1S,3r,5R)-8-isopropyl-8-aza-bicyclo[3.2.1]oct-3-yloxy)-1H-indol-2-yl]-[4-(toluene-4-sulfonyl)-piperazin-1-yl]-methanone] | 2.4
3 | COC(=O)N1CCN(C(=O)c2cc3cc(OC4CCN(C(C)C)CC4)ccc3n2C(C)C)CC1 [Example 73, 4-[1-Isopropyl-5-(1-isopropyl-piperidin-4-yloxy)-1H-indole-2-carbonyl]-piperazine-1-carboxylic acid methyl ester] | 10.4

Further compounds by falling Ki, results first:

Row | Ki [nM] | Compound
4 | 6.7 | CC(C)N1CCC(Oc2ccc3c(c2)cc(C(=O)N2CCN(S(C)(=O)=O)CC2)n3CC(F)F)CC1 [Example 55, [1-(2,2-Difluoro-ethyl)-5-(1-isopropyl-piperidin-4-yloxy)-1H-indol-2-yl]-(4-methanesulfonyl-piperazin-1-yl)-methanone]
5 | 3.4 | CC(C)N1CCC(Oc2cc3cc(C(=O)N4CCN(S(C)(=O)=O)CC4)n(C(C)C)c3cc2Br)CC1 [Example 5, [6-Bromo-1-isopropyl-5-(1-isopropyl-piperidin-4-yloxy)-1H-indol-2-yl]-(4-methanesulfonyl-piperazin-1-yl)-methanone]
6 | 2.3 | CC(C)N1CCC(Oc2cc3cc(C(=O)N4CCN(C(=O)C5CC5)CC4)[nH]c3cc2Br)CC1 [Example 18, [6-Bromo-5-(1-isopropyl-piperidin-4-yloxy)-1H-indol-2-yl]-(4-cyclopropanecarbonyl-piperazin-1-yl)-methanone]
7 | 1.8 | CC(=O)N1CCN(C(=O)c2cc3cc(OC4CCN(C(C)C)CC4)c(Br)cc3n2-c2ccnc(Cl)c2)CC1 [Example 28, 1-{4-[6-Bromo-1-(2-chloro-pyridin-4-yl)-5-(1-isopropyl-piperidin-4-yloxy)-1H-indole-2-carbonyl]-piperazin-1-yl}-ethanone]
